Data taken from patent US20140134139A1, “CD34+ CELLS AND METHODS OF USE” (NORTHWESTERN UNIVERSITY, priority 2012, published 2014).

Legend:
[1] = test system: human CD34+ cells; experiment: Toxicity to human CD34+ cells; assay type: cell-based; settings: similar drug doses as for mouse EPCs and even 2-fold reduced levels
Experimental: In an attempt to increase their plasticity, 2.0×10^5 sorted EPCs were seeded on fibronectin coated plates then treated for 48 hours with individual or combinations of epigenetic modifying agents; 500 nM 5′-Azacytidine (5′ Aza; DNA methyltransferase inhibitor), 1 mM valproic acid (VPA; histone deacetylase inhibitor), 1 mM BIX-01294 (histone methyltransferase inhibitor). Drug dosages were verified as non-toxic by cell viability analysis (data not shown). […] All mRNA expression was normalized to 18S RNA then presented as a fold difference compared to untreated EPCs. […]
The epigenetic reprogramming by these small molecules was evaluated in human CD34+ cells to determine whether their reprogramming potential is limited to mouse EPCs or whether it can also be translated to human EPCs (bone marrow mobilized CD34+ cells), currently used in clinical trials (Losordo D W et al., Circ. Res. 109:428-436 (2011)). CD34+ cells, obtained from healthy donors and provided by Baxter healthcare, were treated or not with VPA (2.5 mM) and 5′ Aza (500 nM) and mRNA expression of pluripotency and cardiomyocyte-specific transcripts was determined. […] In order to determine enhanced functional capacity of reprogrammed CD34+ cells in the repair of post-infarct myocardium, a previously determined sub-therapeutic dose of 2.5×10^4 cells was used for post-AMI transplantation in immune-e-deficient mouse AMI model. […]

[2] = test system: Lineage-Sca-1+CD31+ EPCs; experiment: Real-time PCR gene expression in drug-treated sorted mouse EPCs; assay type: cell-based
Experimental: Relative mRNA expression of target genes was normalized to the endogenous 18S control gene.
Lineage-Sca-1+CD31+ EPCs were cultured on 5 μg/mL human fibronectin coated plates in DMEM supplemented with 10% FBS and penicillin/streptomycin at 37° C. with 5% CO2. Human CD34+ cells were cultured in X-VIVO (Lonza) media supplemented with 0.5% human serum albumin, 50 ng/mL Flt3 ligand, 20 ng/mL stem cell factor, 50 ng/mL VEGF, and 10 ng/mL thrombopoietin. Either cell type was treated with VPA (2.5 mM) for 24 hours then 500 nM 5′ Aza was added to the culture media and cells remained in culture for an additional 24 hours (48 hours total). Different ranges of doses were tested with above doses being determined as the optimal doses not only for reprogramming but also for displaying minimal cellular toxicity. Further, a staggered treatment protocol, that is, contacting an EPC culture with a first epigenetic programming agent (for example, VPA) for a first period of time (for example, 24 hr), followed by contacting the EPC culture with a second epigenetic programming agent (for example, 5′-Aza) for a second period of time (for example, 24 hr) was determined to be a highly preferred protocol for reprogramming. Mouse EPCs were also cultured with 1 μM BIX-01294 for 48 hours in the same culture conditions. […]

[3] = test system: Lineage-Sca-1+CD31+ EPCs; experiment: Cell viability analysis of drug-treated mouse EPCs; assay type: cell-based; settings: 500 nM 5′ Aza, 1 mM VPA, 1 mM BIX-01294; 48 hours; data not shown
Experimental: In an attempt to increase their plasticity, 2.0×10^5 sorted EPCs were seeded on fibronectin coated plates then treated for 48 hours with individual or combinations of epigenetic modifying agents; 500 nM 5′-Azacytidine (5′ Aza; DNA methyltransferase inhibitor), 1 mM valproic acid (VPA; histone deacetylase inhibitor), […] (histone methyltransferase inhibitor). Drug dosages were verified as non-toxic by cell viability analysis (data not shown). […] All mRNA expression was normalized to 18S RNA then presented as a fold difference compared to untreated EPCs. […] Since the treated cells express cardiomyocyte genes at basal level they may be more inclined to differentiate into mature CMCs under conditions conducive for CMC differentiation. Similar changes in gene expression were found in human CD34+ cells with the regimen of 2.5 mM VPA followed by 500 nM 5′ Aza (FIG. 2A). BIX-01294 treatment, even at reduced doses, was toxic to human CD34+ cells and was therefore not used in human cell studies.

[4] = test system: murine endothelial cells (SVEC); experiment: Western blot of histone acetylation and methylation in SVEC cells; assay type: cell-based, mouse; settings: 1 μM BIX-01294, compared to untreated control cells
Experimental: Cell lysate from 1.5×10^7 SVEC cells was prepared using whole cell lysate buffer (50 mM Tris-HCl, 0.5% Igepal (NP-40), 150 nM NaCl). […] Equal protein loading in each lane was verified using antibodies against β-actin and changes in modified histone levels were quantified by first normalization to total H3 or H4 protein.
Therefore, murine endothelial cells (SVEC) were treated with either 1 μM BIX-01294 or staggered addition of 1 mM VPA then 500 nM 5′-Azacytidine for 48 h and histone acetylation and methylation were assessed by western blot.

[5] = test system: SVEC cells; experiment: ChIP assay of acetylated H3K9 at Oct4 and cardiomyocyte gene promoters in SVEC cells; assay type: cell-based, mouse; settings: p<0.05
[6] = test system: Nkx2.5 promoter; experiment: Pyrosequencing methylation analysis of the Nkx2.5 promoter in SVECs; assay type: cell-based, mouse; settings: treated vs control SVEC cells

Structure (SMILES) | toxicity to human CD34+ cells [1] | induction of cardiomyocyte-specific transcripts ([2]; real-time PCR immediately after treatment, without cardiomyocyte differentiation conditions) | Oct4 expression, fold difference compared to untreated EPCs ([2]; real-time PCR, normalized to 18S RNA, 48 hours with 1 mM BIX-01294, or 24 hours 1 mM VPA then 24 hours 500 nM 5′ Aza) [fold] | toxicity of drug dosages by cell viability analysis [3] | reduction of H3K9 di-methylation [4] [%] | acetylated H3K9 bound to cardiac-specific gene promoters (Actn2, Ryr2, TnnT2) ([5]; compared to non-treated cells) | acetylated H3K9 bound to the core (CP) and regulatory promoter (RP) regions of Oct4 ([5]; compared to untreated controls) | CpG methylation patterns of Nkx2.5 [6]
COc1cc2nc(N3CCCN(C)CC3)nc(NC3CCN(Cc4ccccc4)CC3)c2cc1OC [BIX-01294] | toxic | de novo induction of cardiomyocyte-specific transcripts | 9.5±2.0 | non-toxic | 64.3±11 | more heavily bound by acetylated H3K9 | significant increase | no significant difference
CCCC(CCC)C(=O)O [VPA, valproic acid] | – | – | – | non-toxic | – | – | – | –
